Measured values published in patent publication US9428460B2, “N-[4-(quinolin-4-yloxy)cyclohexyl(methyl)](hetero)arylcarboxamides as androgen receptor antagonists, production and use thereof as medicinal products” (BAYER PHARMA AKTIENGESELLSCHAFT, priority 2012, dated 2016).

What was measured:
Type in all cases: cell-based
[1] = biological target: human androgen receptor (full length, wild-type form) (Homo sapiens (Human), UniProt P10275); assay: Transactivation assay for the wild-type androgen receptor (PC-3 cells, MMTV-luciferase reporter); details: in the presence of R1881, 16 hours
Description: For determining the androgen receptor-dependent transcription, a cellular assay system was used, consisting of PC-3 cells (Kaighn et al., Invest. Urol. 17: 16-23, 1979), which express the human androgen receptor stably and recombinantly (full length, wild-type form, see Swiss-Prot Acc. No. P10275, Entry Version 159, Sequence Version 2). In addition, these PC3 cells contain a stably integrated reporter gene plasmid, which is based on the commercially available plasmid pGL4.14 (#E6691, Promega Corporation, Madison, Wis., USA) and contains the luciferase gene from the American firefly (Photinus pyralis) under the control of the MMTV promoter (Cato et al., EMBO J. 6: 363-368, 1987). These cells were propagated in routine cell culture at 37° C. and 5% CO2 in a medium containing 90% RPMI 1640 (Invitrogen GmbH, Darmstadt, Germany), 100 U penicillin, 100 μg/ml streptomycin (Invitrogen), 4 mM L-glutamine (Invitrogen), 10% fetal calf serum (FCS Serum Gold, PAA Laboratories GmbH, Cölbe, Germany), 600 μg/ml Geneticin (G418-sulphate, Invitrogen) and 10 μg/ml puromycin (Sigma Aldrich GmbH, Germany).
For carrying out the transactivation assays, approx. 1000 cells per well were plated out in a 384-well cell culture plate in a medium that contained activated charcoal-treated calf serum (FCS Serum Gold, PAA Laboratories) at a concentration of 5% (v/v). The test substances were added in a concentration series from 5.12×10^−12 to 1×10^−5 M in the presence of […] R1881 (methyltrienolone). The test plates were incubated overnight at 37° C. and 5% CO2. After 16 hours, 15 μl of Steady Glo Lysis and Detection reagent (E2550, Promega Corporation, Madison, Wis., USA) was added per well and the luminescence was read in a Topcount Luminometer (PerkinElmer, Waltham, Mass., USA) for 4 seconds per well. The luminescence values obtained were normalized, wherein 100% corresponded to the effect of the unstimulated control (without R1881), and 0% corresponded to the effect of the stimulated control (R1881 plus DMSO instead of test substance). The IC50 value was determined by regression analysis based on a four-parameter equation (minimum, maximum, IC50, Hill coefficient; Y=Max+(Min−Max)/(1+(X/IC50)^Hill)).

[2] = biological target: androgen receptor mutant W741C (Homo sapiens (Human), UniProt P10275, W742C); assay: Transactivation assay for the androgen receptor mutant W741C (transfected PC-3 cells); details: in the presence of 1×10^−10 M R1881, 24 hours
Method: PC-3 cells (Kaighn et al., Invest. Urol. 17: 16-23, 1979) were plated out at a density of 10000 cells per well of a 96-well cell culture plate in RMPI 1640 medium (F1235, Biochrom AG, Berlin, Germany), which contained activated charcoal-treated calf serum (FCS Serum Gold, PAA Laboratories) at a concentration of 5% (v/v). On the next day the cells were transiently transfected with the pSG5-vector (#216201 Stratagene), which contained the sequence of the androgen receptor mutant W741C (Haapala et al., Lab Invest. 81(12): 1647-51, 2001), and with a reporter plasmid based on pGL4.14 (#E6691, Promega) with the luciferase-gene (from Photinus pyralis) under the control of the MMTV promoter (Cato et al., EMBO J. 6: 363-8, 1987). The cells were treated with the test substances in concentrations from 1×10^−8 to 1×10^−10 M in the presence of 1×10^−10 M R1881 and were incubated overnight at 37° C. and 5% CO2. After 24 hours, 100 μl of Steady Glo Lysis and Detection reagent (E2550, Promega) was added per well and the luminescence was read in a Victor3 Luminometer (PerkinElmer) for 1 second per well. The luminescence values obtained were normalized, wherein 100% corresponded to the effect of the unstimulated control (without R1881), and 0% corresponded to the effect of the stimulated control (R1881 plus DMSO instead of test substance). The IC50 value was determined by regression analysis based on a four-parameter equation (minimum, maximum, IC50, Hill coefficient; Y=Max+(Min−Max)/(1+(X/IC50)^Hill)).

[3] = biological target: androgen receptor mutant E709Y (Homo sapiens (Human), UniProt P10275, E710Y); assay: Transactivation assay for the androgen receptor mutant E709Y (transfected PC-3 cells); details: in the presence of 1×10^−10 M R1881, 24 hours
Method: PC-3 cells (Kaighn et al., Invest. Urol. 17: 16-23, 1979) were plated out at a density of 10000 cells per well of a 96-well cell culture plate in RMPI 1640 medium (F1235, Biochrom AG Berlin, Germany) that contained activated charcoal-treated calf serum (FCS Serum Gold, PAA Laboratories) at a concentration of 5% (v/v). On the next day the cells were transiently transfected with the pSG5-vector (#216201 Stratagene), which contained the sequence of the androgen receptor mutant E709Y (Georget et al., Mol. Endocrinol. 20(4): 724-734, 2006), and with the MMTV-luciferase plasmid (see above, transactivation assay for the androgen receptor mutant W741C). The cells were treated with the test substances in concentrations from 1×10^−8 to 1×10^−10 M in the presence of 1×10^−10 M R1881 and were incubated overnight at 37° C. and 5% CO2. After 24 hours, 100 μl of Steady Glo Lysis and Detection reagent (E2550, Promega) was added per well and the luminescence was read in a Victor3 Luminometer (PerkinElmer) for 1 second per well. The luminescence values obtained were normalized, wherein 100% corresponded to the effect of the unstimulated control (without R1881), and 0% corresponded to the effect of the stimulated control (R1881 plus DMSO instead of test substance). The IC50 value was determined by regression analysis based on a four-parameter equation (minimum, maximum, IC50, Hill coefficient; Y=Max+(Min−Max)/(1+(X/IC50)^Hill)).

LAPC-4 cells = assay: Proliferation assay with LAPC-4 cells; details: Homo sapiens, LAPC4, 168 h; in the presence of 1×10^−9 M R1881, seven days, AlamarBlue; read-out: IC50 LAPC-4 cell proliferation
Method: LAPC-4 cells (Klein et al., Nat Med. 3(4): 402-8, 1997) were plated out at a density of 4000 cells per well of a 96-well cell culture plate in RMPI 1640 medium (F1275, Biochrom AG) that contained activated charcoal-treated calf serum (FCS Serum Gold, PAA Laboratories) at a concentration of 10% (v/v). On the next day the cells were treated with the test substances in concentrations from 1×10^−8 to 1×10^−10 M in the presence of 1×10^−9 M R1881. Cell proliferation was determined seven days later after incubation for 2 hours with AlamarBlue (DAL1100, Invitrogen) (Nakayama et al., J Immunol Methods, 204(2): 205-8, 1997). The fluorescence values obtained were normalized, wherein 100% corresponded to the effect of the unstimulated control (without R1881), and 0% corresponded to the effect of the stimulated control (R1881 plus DMSO instead of test substance). The IC50 value was determined by regression analysis based on a four-parameter equation (minimum, maximum, IC50, Hill coefficient; Y=Max+(Min−Max)/(1+(X/IC50)^Hill)).

LNCaP cells = assay: Proliferation assay with LNCaP cells; details: Homo sapiens, 168 h, in the presence of 1×10^−10 M R1881, seven days, AlamarBlue, read-out: IC50 LNCaP cell proliferation
Method: LNCaP cells (Horoszewicz et al., in “Models for Prostate Cancer” (ed. G. P. Murphy), Alan R. Liss, New York 1981, p. 115-132; Horoszewicz et al., Cancer Res. 43: 1809-1818, 1983) were plated out at a density of 2000 cells per well of a 96-well cell culture plate in RMPI 1640 medium (F1275, Biochrom AG), which contained activated charcoal-treated calf serum (FCS Serum Gold, PAA Laboratories) at a concentration of 5% (v/v). Three days later the cells were treated with the test substances in concentrations from 1×10^−8 to 1×10^−10 M in the presence of 1×10^−10 M R1881. Cell proliferation was determined seven days later after incubation for 2 hours with AlamarBlue (DAL1100, Invitrogen) (Nakayama et al., J Immunol Methods, 204(2): 205-8, 1997). The fluorescence values obtained were normalized, wherein 100% corresponded to the effect of the unstimulated control (without R1881), and 0% corresponded to the effect of the stimulated control (R1881 plus DMSO instead of test substance). The IC50 value was determined by regression analysis based on a four-parameter equation (minimum, maximum, IC50, Hill coefficient; Y=Max+(Min−Max)/(1+(X/IC50)^Hill)).

Sequence of human androgen receptor (full length, wild-type form) (P10275 whole entry): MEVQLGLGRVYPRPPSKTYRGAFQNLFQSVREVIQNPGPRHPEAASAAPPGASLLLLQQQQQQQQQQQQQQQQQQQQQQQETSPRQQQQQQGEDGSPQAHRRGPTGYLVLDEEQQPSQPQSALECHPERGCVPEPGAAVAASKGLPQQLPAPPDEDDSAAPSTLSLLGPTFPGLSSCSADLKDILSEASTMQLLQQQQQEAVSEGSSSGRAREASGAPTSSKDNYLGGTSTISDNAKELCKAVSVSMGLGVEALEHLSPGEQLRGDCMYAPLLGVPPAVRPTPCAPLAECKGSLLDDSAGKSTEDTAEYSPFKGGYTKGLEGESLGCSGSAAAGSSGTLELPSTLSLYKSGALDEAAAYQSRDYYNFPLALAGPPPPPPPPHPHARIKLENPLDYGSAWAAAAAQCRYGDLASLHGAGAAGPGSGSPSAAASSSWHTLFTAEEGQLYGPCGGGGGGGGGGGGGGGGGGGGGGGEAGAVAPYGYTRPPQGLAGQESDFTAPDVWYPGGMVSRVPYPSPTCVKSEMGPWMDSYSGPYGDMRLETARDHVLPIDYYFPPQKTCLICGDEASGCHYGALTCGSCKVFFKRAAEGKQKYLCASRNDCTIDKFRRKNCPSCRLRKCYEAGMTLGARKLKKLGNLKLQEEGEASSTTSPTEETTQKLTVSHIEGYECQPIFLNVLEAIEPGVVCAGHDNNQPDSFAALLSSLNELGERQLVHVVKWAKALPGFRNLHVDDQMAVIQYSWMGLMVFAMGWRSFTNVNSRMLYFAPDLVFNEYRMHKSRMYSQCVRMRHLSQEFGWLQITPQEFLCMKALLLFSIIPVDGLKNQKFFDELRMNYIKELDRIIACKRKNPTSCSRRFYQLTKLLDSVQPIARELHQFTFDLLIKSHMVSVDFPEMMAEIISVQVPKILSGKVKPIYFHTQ
Sequence of androgen receptor mutant E709Y (P10275 whole entry E710Y): as the sequence (P10275 whole entry) above, with E710Y counted along it
Sequence of androgen receptor mutant W741C (P10275 whole entry W742C): as the sequence (P10275 whole entry) above, with W742C counted along it

SMILES | IC50 [1] | IC50 [2] | IC50 [3] | IC50 (LAPC-4 cells) | IC50 (LNCaP cells)
N#Cc1cccc2c(O[C@H]3CC[C@H](NC(=O)c4ccc(F)c(F)c4)CC3)ccnc12 [Example 24, N-{trans-4-[(8-cyanoquinolin-4-yl)oxy]cyclohexyl}-3,4-difluorobenzamide] | 92 nM | 72 nM | 14 nM | – | –
O=C(NC[C@H]1CC[C@H](Oc2ccnc3ccccc23)CC1)c1ccc(F)c(F)c1 [Example 9, N-{[trans-4-(4-quinolyloxy)cyclohexyl]methyl}-3,4-difluorobenzamide] | 105 nM | 72 nM | 56 nM | 45 nM | –
O=C(NC[C@H]1CC[C@H](Oc2ccnc3ccccc23)CC1)c1cccc(F)c1 [Example 10, N-{[trans-4-(4-quinolyloxy)cyclohexyl]methyl}-3-fluorobenzamide] | 194 nM | 220 nM | 175 nM | 130 nM | –
O=C(N[C@H]1CC[C@H](Oc2ccnc3ccccc23)CC1)c1cccc(F)c1 [Example 19, N-{trans-4-(4-quinolyloxy)cyclohexyl}-3-fluorobenzamide] | 32 nM | – | – | 48 nM | 110 nM
Cc1cc(C(=O)NC[C@H]2CC[C@H](Oc3ccnc4ccccc34)CC2)no1 [Example 11, N-{[trans-4-(4-quinolyloxy)cyclohexyl]methyl}-5-methylisoxazole-3-carboxamide] | 210 nM | – | – | 118 nM | 260 nM
